# In patent US8211906B1, “Method of inhibiting growth of neoplastic cells and inhibiting infection by administering an immune enhancer drug” (priority 2003, dated 2012):
# What was measured:
# physchem = conditions: water
# [1] = test system: mouse spleen cell cultures; conditions: cited from earlier work
# [2] = test system: isolated human mononuclear cells; conditions: cited from earlier work
# rhinovirus 1A = conditions: in vitro, cells infected with rhinovirus 1A; cited from earlier work
# [3] = test system: respiratory syncytial virus; conditions: in vitro, cells infected with respiratory syncytial virus; cited from earlier work
# varicella zoster = conditions: in vitro, cells infected with varicella zoster; cited from earlier work
# [4] = test system: spleen, bone marrow, liver, peritoneal exudates and alveolar macrophages; conditions: in vitro; cited from earlier work
# primary genital herpes = conditions: guinea pigs, single dose; cited from earlier work
# Rift Valley Fever virus = conditions: monkeys; cited from earlier work
# Banzi virus = conditions: monkeys; cited from earlier work
# [5] = test system: a number of different tumor cell types; conditions: mice implanted with tumor cells; cited from earlier work
# [6] = cited from earlier work
# [7] = cited from earlier work; remark: listed apart in the source
# [8] = test system: cutaneous metastatic melanoma; conditions: topical, under occlusion; cited from earlier work
# [9] = topical; cited from earlier work
# [10] = cited from earlier work; remark: listed apart in the source
# aqueous solubility = conditions: pH 7.4, aqueous buffer
compound,measurement,setting,value
CC(C)(C)CC(=O)OCC(=O)[C@@]12OC(C)(C)O[C@@H]1C[C@H]1[C@@H]3CCC4=CC(=O)C=C[C@]4(C)[C@@]3(F)[C@@H](O)C[C@@]12C [Triamcinolone hexacetonide],solubility,physchem,3.75 µM
"CC(C)Cn1cnc2c(N)nc3ccccc3c21 [imiquimod, 1-(2-methylpropyl)-1H-imidazo[4,5-c]quinolin-4-amine]","concentration of maximum activity, induced proliferation",[1],1 µg/mL
same,concentration of maximal interferon-alpha production,[2],3 µM
same,plaque reduction,rhinovirus 1A,50%
same,plaque reduction,[3],50%
same,plaque reduction,varicella zoster,50%
same,time of cytokine induction after exposure,[4],1 to 2 h
same,time of peak cytokine induction,[4],8 h
same,treatment of primary genital herpes infections,primary genital herpes,effectively treats
same,efficacy against Rift Valley Fever virus,Rift Valley Fever virus,effective
same,efficacy against Banzi virus,Banzi virus,effective
same,anti-tumor effect,[5],effective anti-tumor agent
same,systemic exposure,[6]; dermal administration,minimal
same,absorption,[6]; oral administration,rapidly absorbed
same,systemic toxicity,[7]; oral administration,significant systemic toxicity
same,skin irritation,[7]; topical administration of creams,significant skin irritation
same,treatment of cutaneous metastatic melanoma,[8],successfully treated
same,effect on contact allergy to dinitrochlorobenzene,[9],enhanced contact allergy
same,solubility in water and common organic solvents,[10]; free base form,almost insoluble
same,solubility at physiologic pH,[10]; physiologic pH,1-2 μg/ml
same,solubility,aqueous solubility,4 µM
